# Where a SMILES comes first, the peptide text is derived from it. The star is where a group is joined. X1 = CCN(CC)CCCCC(C)Nc1c2ccccc2nc2c(C(=O)NCCCO/N=C/C(=O)*)cccc12
# Columns and labels:
# DNA = assay: Binding affinity to DNA (unknown origin); type: nucleic-acid assay
# [1] = target: Amyloid-beta precursor protein (Homo sapiens, UniProt P05067); assay: Inhibition of amyloid beta (1 to 40) (unknown origin) self aggregation
# Acetylcholinesterase [2] = target: Acetylcholinesterase (Homo sapiens, UniProt P22303); assay: Inhibition of AChE (unknown origin)
# Chain of Acetylcholinesterase (Homo sapiens, UniProt P22303) (P22303 whole entry): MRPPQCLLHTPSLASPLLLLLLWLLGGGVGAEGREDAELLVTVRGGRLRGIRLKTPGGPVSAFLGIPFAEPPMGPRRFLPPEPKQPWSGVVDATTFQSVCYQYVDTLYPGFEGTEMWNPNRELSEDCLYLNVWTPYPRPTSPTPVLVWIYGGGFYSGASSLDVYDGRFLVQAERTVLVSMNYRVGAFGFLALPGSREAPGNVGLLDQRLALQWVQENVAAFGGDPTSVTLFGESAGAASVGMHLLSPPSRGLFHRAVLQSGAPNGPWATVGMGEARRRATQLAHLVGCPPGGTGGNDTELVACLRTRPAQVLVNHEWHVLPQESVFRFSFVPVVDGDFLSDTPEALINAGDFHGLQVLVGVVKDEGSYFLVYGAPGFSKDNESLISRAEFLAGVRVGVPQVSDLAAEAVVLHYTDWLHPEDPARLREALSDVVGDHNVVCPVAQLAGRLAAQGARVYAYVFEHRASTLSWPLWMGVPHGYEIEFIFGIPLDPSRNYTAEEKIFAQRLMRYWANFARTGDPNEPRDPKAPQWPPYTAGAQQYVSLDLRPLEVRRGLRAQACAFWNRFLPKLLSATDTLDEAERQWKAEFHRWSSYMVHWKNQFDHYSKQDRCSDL
# Calf thymus DNA = assay: Binding affinity to calf thymus DNA; type: nucleic-acid assay; conditions: Bos taurus
# Acetylcholinesterase [3] = target: T1, Acetylcholinesterase (Mus musculus, UniProt P21836); assay: Inhibition of AChE in mouse brain; type: tissue-based
# T1 sequence (P21836 whole entry): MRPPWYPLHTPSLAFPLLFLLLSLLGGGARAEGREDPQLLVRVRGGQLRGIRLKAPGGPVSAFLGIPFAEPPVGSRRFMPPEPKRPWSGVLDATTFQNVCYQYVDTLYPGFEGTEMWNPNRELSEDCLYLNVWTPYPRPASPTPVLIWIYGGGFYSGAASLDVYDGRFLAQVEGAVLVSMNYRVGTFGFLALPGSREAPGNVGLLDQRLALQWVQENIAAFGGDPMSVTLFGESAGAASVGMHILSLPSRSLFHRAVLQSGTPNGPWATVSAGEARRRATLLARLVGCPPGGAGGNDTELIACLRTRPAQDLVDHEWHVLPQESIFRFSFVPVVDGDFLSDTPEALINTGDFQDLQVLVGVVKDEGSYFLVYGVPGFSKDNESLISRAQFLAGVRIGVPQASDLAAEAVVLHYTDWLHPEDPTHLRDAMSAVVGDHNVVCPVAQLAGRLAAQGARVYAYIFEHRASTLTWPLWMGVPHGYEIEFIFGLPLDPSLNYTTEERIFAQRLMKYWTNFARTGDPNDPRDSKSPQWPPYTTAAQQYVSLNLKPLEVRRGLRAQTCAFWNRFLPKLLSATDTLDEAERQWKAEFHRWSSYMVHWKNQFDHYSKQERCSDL
# Cholinesterase = Cholinesterase (Homo sapiens, UniProt P06276); assay: Inhibition of BuChE (unknown origin)
# Chain of Cholinesterase (P06276 whole entry): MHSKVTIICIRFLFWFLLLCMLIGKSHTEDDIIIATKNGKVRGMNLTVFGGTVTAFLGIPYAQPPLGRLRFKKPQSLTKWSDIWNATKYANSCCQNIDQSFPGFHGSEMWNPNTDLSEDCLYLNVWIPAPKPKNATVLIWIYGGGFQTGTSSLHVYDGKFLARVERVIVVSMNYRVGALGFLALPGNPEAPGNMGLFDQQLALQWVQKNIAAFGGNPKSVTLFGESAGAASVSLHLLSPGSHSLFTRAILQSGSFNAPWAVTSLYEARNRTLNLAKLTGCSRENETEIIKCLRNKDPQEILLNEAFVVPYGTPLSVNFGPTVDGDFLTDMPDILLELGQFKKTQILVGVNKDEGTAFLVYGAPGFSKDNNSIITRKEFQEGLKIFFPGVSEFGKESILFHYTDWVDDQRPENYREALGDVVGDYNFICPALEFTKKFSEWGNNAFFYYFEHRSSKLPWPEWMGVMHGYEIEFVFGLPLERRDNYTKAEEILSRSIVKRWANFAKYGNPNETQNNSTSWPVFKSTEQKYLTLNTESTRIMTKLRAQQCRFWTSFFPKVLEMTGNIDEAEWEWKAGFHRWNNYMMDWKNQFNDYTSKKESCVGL
# Chain of Amyloid-beta precursor protein (P05067 whole entry): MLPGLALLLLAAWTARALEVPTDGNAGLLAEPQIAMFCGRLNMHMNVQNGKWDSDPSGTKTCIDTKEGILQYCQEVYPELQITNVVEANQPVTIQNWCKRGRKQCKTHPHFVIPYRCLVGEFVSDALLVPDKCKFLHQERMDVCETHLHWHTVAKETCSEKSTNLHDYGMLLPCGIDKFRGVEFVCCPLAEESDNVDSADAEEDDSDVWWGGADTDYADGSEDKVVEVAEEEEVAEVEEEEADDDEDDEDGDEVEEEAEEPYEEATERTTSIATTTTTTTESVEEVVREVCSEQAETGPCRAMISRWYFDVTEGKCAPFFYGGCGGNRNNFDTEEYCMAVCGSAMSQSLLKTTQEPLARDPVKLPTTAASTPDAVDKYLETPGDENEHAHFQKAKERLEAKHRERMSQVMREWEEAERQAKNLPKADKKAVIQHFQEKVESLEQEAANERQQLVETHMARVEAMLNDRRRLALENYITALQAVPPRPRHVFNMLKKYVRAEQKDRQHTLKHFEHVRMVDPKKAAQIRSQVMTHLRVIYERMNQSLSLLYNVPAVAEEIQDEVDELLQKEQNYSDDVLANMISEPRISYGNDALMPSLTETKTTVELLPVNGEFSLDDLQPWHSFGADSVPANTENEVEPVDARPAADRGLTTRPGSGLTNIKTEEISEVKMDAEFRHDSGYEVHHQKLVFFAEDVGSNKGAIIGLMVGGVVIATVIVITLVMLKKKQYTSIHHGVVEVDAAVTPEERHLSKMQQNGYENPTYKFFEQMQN
smiles,measurement,setting,value
N#Cc1c(/N=C/c2c3ccccc3nc3ccccc23)sc2c1CCC2,K,DNA,1 ×10⁴ /M
CCN(CC)CCCCC(C)Nc1c2ccccc2nc2c(C(=O)NCCCO/N=C/C(=O)NCCCC[C@@H]3NC(=O)CNC(=O)[C@@H]4CCCN4C(=O)[C@H](CCCCN)NC(=O)[C@@H]4CCCN4C(=O)[C@H](CCCCN)NC(=O)CNC(=O)[C@@H]4CCCN4C(=O)[C@H](CCCCN)NC(=O)[C@@H]4CCCN4C3=O)cccc12 (stereo partly specified) (cyclo(GKPKPGK(X1)PKP)),IC50,[1],2000 nM
Cc1cc(C)c(S(=O)(=O)Nc2ccc(C3C4=C(CC(C)(C)CC4=O)N(c4ccc(Br)cc4)C4=C3C(=O)CC(C)(C)C4)cc2)c(C)c1,IC50,Acetylcholinesterase [2],140 nM
COc1ccc2c(NCCCNCCCNCCn3cnc4c(N)nc(N)nc43)c3cc(Cl)ccc3nc2c1,K,Calf thymus DNA,10000 to 1e+06 M⁻¹
Fc1ccc(N2CCN(c3c4ccccc4nc4c(Cl)cccc34)CC2)cc1,IC50,Acetylcholinesterase [3],330 nM
COc1ccc2nc3cc(Cl)ccc3c(NCCCNCCCNCCn3cnc4c(N)ncnc43)c2c1,K,Calf thymus DNA,10000 to 1e+06 M⁻¹
COc1ccc2nc3cc(Cl)ccc3c(Nc3sc4c(c3C#N)CCC4)c2c1,K,DNA,1 ×10⁴ /M
O=C(NCCCCCNc1c2c(nc3ccccc13)CCCC2)c1c2ccccc2nc2ccccc12,IC50,Acetylcholinesterase [2],0.0076 nM
same,IC50,Cholinesterase,0.0017 nM
CCOc1ccc2nc3cc(N)ccc3c(NCCCNCCCNCCn3cnc4c(N)ncnc43)c2c1,K,Calf thymus DNA,10000 to 1e+06 M⁻¹
COc1cc2nc3cc([N+](=O)[O-])ccc3c(NCCCNCCCNCCn3cnc4c(N)ncnc43)c2cc1OC,K,Calf thymus DNA,10000 to 1e+06 M⁻¹
NC(=O)c1c(/N=C/c2c3ccccc3nc3ccccc23)sc2c1CCC2,K,DNA,1 ×10⁴ /M
CCOC(=O)c1c(/N=C/c2c3ccccc3nc3ccccc23)sc2c1CCC2,K,DNA,1 ×10⁴ /M
CCOc1ccc2nc3c(I)c(N)ccc3c(NCCCNCCCNCCn3cnc4c(N)ncnc43)c2c1,K,Calf thymus DNA,10000 to 1e+06 M⁻¹
O=C(/C=C/c1ccc([N+](=O)[O-])cc1)NCCCCCCNc1c2c(nc3ccccc13)CCCC2,IC50,Acetylcholinesterase [2],2.7 nM
same,IC50,Cholinesterase,6.5 nM
